The values that follow come from US20250011292A1, “NOVEL RHODANINE DERIVATIVES AND USES THEREOF” (priority 2021, published 2025).

One may read the IC50 as the concentration that inhibits the measured activity by half. The term EC50 denotes the midpoint of the concentration-response curve.

The test system of data set [1] is HeLa cells. Put plainly: Light-induced and dark cytotoxicity, CCK-8 assay, HeLa cells. It is filed as cell-based. To be noted: for IC50: 24 hours, mean ± SD; for light-induced (photo-induced) cytotoxicity (in words): with or without blue light irradiation. As for the experimental part: (§1) HeLa cells and MCF-7 cells were purchased from ATCC (Manassas, VA). HeLa cells were cultured in high glucose DMEM culture medium (Sigma-Aldrich; St. Louis, MO) with glutamine, without sodium pyruvate, and supplemented with 10% fetal bovine serum (FBS) and 1% penicillin and […]. MCF-7 cells were cultured in MEM culture medium (Sigma-Aldrich) supplemented with 10% FBS and 1% penicillin and […]. Cells were incubated in 37° C. incubator with 5% CO2. Under dim light, compounds were dissolved in DMSO to form 20 mM stock solution and serially diluted in 96-well plate with full culture medium to form the working solution with DMSO concentration being 0.5% in all wells. HeLa and MCF-7 cells were seeded in 96-well plate at a density of 10^5/100 μL/well and incubated overnight, and then the culture medium was replaced with 100 μL of the compound-loaded working solution. The dark treatment group was kept in the incubator for 24 hours. The exposure treatment group was allowed to incubate for 30 minutes, followed by exposure with blue light for the designated time (5 min for 0.45 J/cm^2). After exposure, cells were returned to the incubator and incubated for 24 hours. 10 μL CCK-8 solution (Dojindo, Japan) was added to the cells in each well and incubated for 2 hours. The optical density at 450 nm of each well was read with the Perkin-Elmer Vector 3 plate reader (USA). Cells treated with 0.5% DMSO were used as the vehicle control and 100 μL culture medium with 10 μL CCK-8 was used as the blank control. Cell viability was calculated as: […]
(§2) All tests were in triplicate, and the IC50 was calculated with non-linear regression of concentration and cell viability by Graphpad Prism.
BW-PS-101 was incubated with cervical carcinoma HeLa cell line under darkness. After incubation for 30 min to facilitate internalization, cells were exposed to a low-power blue LED array (470 nm, 1.5 mW/cm^2, as described above) for 5 minutes (total irradiation energy 0.45 J/cm^2) and incubated for an additional 24 hours under darkness followed by cell viability determination with CCK-8 assay.
(Tetrazolium assays rely on reduction of a dye to a coloured formazan, in cell work by metabolically active cells.)

Another data set has as its system MCF-7 cells. Put plainly: Light-induced and dark cytotoxicity, CCK-8 assay, MCF-7 cells. Format: cell-based. The settings on record: 24 hours, mean ± SD. The protocol:
FIGS. 3A-3K are graphs showing the dose response of compounds as described herein in MCF-7 cells. […] The cells were treated and allowed the incubate for 24 hours (labeled in the figures as the compound name followed by “DARK”) or were treated, incubated for 30 minutes, exposed to light for a designated time, and then incubated for 24 hours (labeled in the figures as the compound name followed by “EXPO”).
as §1, §2
Additional compounds as described herein were tested. […] Light-induced cytotoxicity was then evaluated. […] PS-107, a compound with the furan ring replaced by phenyl, was synthesized as the structural mimetic control. […] All compounds were also tested against MCF-7 breast cancer cell line, which gave a similar trend of activity (Table 4).

The next data set can be described thus: Quantum yield ϕΔ in MeOH. Format: physicochemical.
In another data set the test system is early endosomes. Put plainly: Fluorescence microscopy, endosome localization. It is filed as cell-based. To be noted: for accumulation / enrichment in endosomes: fluorescence microscopy / imaging studies. The protocol: FIG. 8 are fluorescence microscopy images of BW-PS-105 (first row), BW-PS-110 (second row), and BW-PS-120 (third row) localized in early endosomes.
The trimethoxy substituted analog BW-PS-105, which was fluorescent with an Ex/Em wavelength of 491 nm/574 nm, was incubated with HeLa cell at a concentration of 1 μM. […] Endosome enrichment of the photosensitizer led to the potency increase of about 5 folds. Targeting photosensitizers to the endosome efficiently induces cancer cell apoptosis by photodynamic therapy.

In data set [2] the test system is HeLa cells. Description: Light-induced and dark cytotoxicity, CCK-8 assay, HeLa cells. It is filed as cell-based. The settings on record: light energy 1.8 J/cm^2.
A further data set has as its system SARS-CoV-2. Put plainly: Inhibition of SARS-CoV-2 replication in infected Huh7 cells. Format: cell-based. The settings on record: read-out: EC50, inhibition of viral replication against SARS-COV-2. The protocol: FIGS. 1A-1C are graphs showing the inhibition of SARS-CoV-2 replication in Huh-7 cells by BW-PS-108 (FIG. 1A), BW-PS-109 (FIG. 1B), and Compound 136 (FIG. 1C). The top line in FIGS. 1A and 1B represent cytotoxicity. Cell pellets from infected cells were collected at 48 hours after infection and viral RNA levels were measured by RT-PCR.
No solubility issues were encountered when studying their toxicity at 100 μM.
The potency levels of the compounds described herein compare favorably against remdesivir and molnupiravir. […] Further, the potency levels of the compounds described herein were also higher than Compound 136.

The mark [3] stands for this setting: Homo sapiens, HeLa, light or radiation study, blue light, exposure light energy density 0.45 J/cm^2, read-out: Hela cells Exposure IC50.
Setting [4] is: Homo sapiens, HeLa, dark, read-out: Hela cells Dark IC50.
[5] abbreviates: Homo sapiens, MCF7, light or radiation study, blue light, exposure light energy density 0.45 J/cm^2, read-out: MCF-7 cells Exposure IC50.
Setting [6] is: Homo sapiens, MCF7, dark, read-out: MCF-7 cells Dark IC50.
[7] abbreviates: blue light, exposure light energy density 0.45 J/cm^2, read-out: Hela cells Exposure IC50.
[8] abbreviates: dark, read-out: Hela cells Dark IC50.
Where [9] appears, read: blue light, exposure light energy density 0.45 J/cm^2, read-out: MCF-7 cells Exposure IC50.
[10] abbreviates: dark, read-out: MCF-7 cells Dark IC50.
The mark [11] stands for this setting: viral RNA by RT-PCR 48 hours after infection.

Like-named read-outs stand apart in the source and are kept apart here.

Turning to `CCCN1C(=O)/C(=C/c2ccc(-c3cc(OC)c(OC)c(OC)c3)o2)SC1=S` [BW-PS-105, (Z)-3-propyl-2-thioxo-5-((5-(3,4,5-trimethoxyphenyl)furan-2-yl)methylene)thiazolidin-4-one], the concentration for half-maximal inhibition (IC50) is 2.13 ± 0.3 µM with HeLa cells [1] (setting [3]), more than 100 µM in the data set on HeLa cells [1] (setting [4]), 2.71 ± 0.78 µM in the data set with MCF-7 cells (setting [5]) and more than 100 µM with MCF-7 cells (setting [6]). For the same compound, in the data set “Quantum yield ϕΔ in MeOH”, the “ϕΔ MeOH)” value is on record as 0.028. Also, the “accumulation / enrichment in endosomes” value in the data set with early endosomes is reported as “accumulation”.

In the case of `COc1cc(-c2ccc(C=C3SC(=S)N(CCN4CCOCC4)C3=O)o2)cc(OC)c1OC` [BW-PS-110], the IC50 was 1.74 ± 0.16 µM in the data set on HeLa cells [1] (setting [7]), more than 100 µM in the data set with HeLa cells [1] (setting [8]), 1.25 ± 0.17 µM in the data set on MCF-7 cells (setting [9]) and more than 100 µM in the data set with MCF-7 cells (setting [10]). In the data set on early endosomes (fluorescence microscopy), the “co-localization with the endosome marker CellularLight endosomes-GFP” value is recorded as “good co-localization”. Moreover, the “accumulation / enrichment in endosomes” value in the data set on early endosomes is listed as “accumulation”.

On to `CCCN1C(=O)/C(=C/c2ccc(-c3ccc(C(F)(F)F)cc3)o2)SC1=S` [BW-PS-106, (Z)-3-propyl-2-thioxo-5-((5-(4-(trifluoromethyl)phenyl)furan-2-yl)methylene)thiazolidin-4-one], for which the IC50 with HeLa cells [1] (setting [3]) is 2.96 ± 0.09 µM; in the data set with HeLa cells [1] (setting [4]), more than 100 µM; in the data set on MCF-7 cells (setting [5]), 2.58 ± 0.73 µM; with MCF-7 cells (setting [6]), more than 100 µM. The “ϕΔ MeOH)” value in the data set “Quantum yield ϕΔ in MeOH” was 0.182.

On to `CCCN1C(=O)/C(=C/c2ccc(-c3ccccc3)o2)SC1=S` [BW-PS-101, (Z)-5-((5-phenylfuran-2-yl)methylene)-3-propyl-2-thioxothiazolidin-4-one], for which the “cytotoxicity of cells treated in the dark (in words)” value in the data set on HeLa cells [1] (HeLa, dark, up to 100 μM) is listed as “did not show any cytotoxicity”. For the same compound, the IC50 is 1.38 ± 0.05 µM with HeLa cells [1] (setting [3]), more than 100 µM with HeLa cells [1] (setting [4]), 0.74 ± 0.14 µM with MCF-7 cells (setting [5]) and more than 100 µM in the data set on MCF-7 cells (setting [6]). For the same compound, the “ϕΔ MeOH)” value in “Quantum yield ϕΔ in MeOH” was found to be 0.109. Besides, the “IC50 in the HeLa cell at higher light energy” value in the data set on HeLa cells [2] is recorded as “submicromolar range”.

Turning to `CCCN1C(=O)/C(=C/c2ccc(-c3ccc(F)cc3)o2)SC1=S` [BW-PS-102, (Z)-5-((5-(4-fluorophenyl)furan-2-yl)methylene)-3-propyl-2-thioxothiazolidin-4-one], the IC50 in the data set on HeLa cells [1] (setting [3]) is 1.48 ± 0.14 µM; in the data set on HeLa cells [1] (setting [4]), more than 100 µM; in the data set with MCF-7 cells (setting [5]), 1.26 ± 0.004 µM; in the data set on MCF-7 cells (setting [6]), more than 100 µM. The “light-induced (photo-induced) cytotoxicity (in words)” value with HeLa cells [1] is listed as “comparable activity as BW-PS-101”. In the data set “Quantum yield ϕΔ in MeOH”, the “ϕΔ MeOH)” value came to 0.075.

Consider `N.N.[Cl][Pt][Cl]` [Cisplatin, cisplatin, reference compound], for which the IC50 in the data set with HeLa cells [1] (setting [7]) stood at 5.95 ± 0.17 µM; in the data set with HeLa cells [1] (setting [8]), 7.54 ± 0.45 µM; with MCF-7 cells (setting [9]), 13.3 ± 1.45 µM; in the data set on MCF-7 cells (setting [10]), 12.5 ± 2.86 µM.

On to `O=C1C(=Cc2ccc(-c3ccccc3)o2)SC(=S)N1CCN1CCOCC1` [BW-PS-108], for which the EC50 in the data set on SARS-CoV-2 (setting [11]) is 280 nM. For the same compound, the IC50 in the data set on HeLa cells [1] (setting [7]) was 0.95 ± 0.02 µM; with HeLa cells [1] (setting [8]), more than 100 µM; with MCF-7 cells (setting [9]) it was 1.22 ± 0.01 µM; in the data set with MCF-7 cells (setting [10]), more than 100 µM. Further, the “ϕΔ MeOH)” value in the data set “Quantum yield ϕΔ in MeOH” is 0.086.

Turning to `CCCN1C(=O)/C(=C/c2ccc(-c3ccc(O)cc3)o2)SC1=S` [BW-PS-103, (Z)-5-((5-(4-hydroxyphenyl)furan-2-yl)methylene)-3-propyl-2-thioxothiazolidin-4-one], the IC50 in the data set with HeLa cells [1] (setting [3]) was 3.58 ± 0.13 µM; in the data set on HeLa cells [1] (setting [4]) it was more than 100 µM; in the data set on MCF-7 cells (setting [5]) it was 4.25 ± 0.17 µM; in the data set on MCF-7 cells (setting [6]) it was approximately 100 µM. In the data set “Quantum yield ϕΔ in MeOH”, the “ϕΔ MeOH)” value is given as 0.007.

For `CCCN1C(=O)/C(=C/c2cccc(-c3ccc(F)cc3)c2)SC1=S` [BW-PS-107, (Z)-5-((4′-fluoro-[1,1′-biphenyl]-3-yl)methylene)-3-propyl-2-thioxothiazolidin-4-one], the IC50 in the data set with HeLa cells [1] (setting [3]) and with MCF-7 cells (setting [5]) was more than 100 µM throughout. In the data set with HeLa cells [1], the “light-induced (photo-induced) cytotoxicity (in words)” value is given as “did not show any photo-induced cytotoxicity”.

As to `CCC(CC)COC(=O)[C@H](C)N[P@](=O)(OC[C@H]1O[C@@](C#N)(c2ccc3c(N)ncnn23)[C@H](O)[C@@H]1O)Oc1ccccc1` [remdesivir, reference compound], in the data set on SARS-CoV-2 (Severe acute respiratory syndrome coronavirus 2, Huh-7, viral RNA by RT-PCR 48 hours after infection), the EC50 is 700 nM.

Take `CCCN1C(=O)/C(=C/c2ccc(-c3ccc(OC)cc3)o2)SC1=S` [BW-PS-104, (Z)-5-((5-(4-methoxyphenyl)furan-2-yl)methylene)-3-propyl-2-thioxothiazolidin-4-one]: the IC50 in the data set with HeLa cells [1] (setting [3]) is 2.71 ± 0.23 µM; with HeLa cells [1] (setting [4]), more than 100 µM; in the data set with MCF-7 cells (setting [5]), 2.87 ± 0.92 µM; in the data set on MCF-7 cells (setting [6]) it was more than 100 µM. The “ϕΔ MeOH)” value in the data set “Quantum yield ϕΔ in MeOH” is 0.015.

Regarding `O=C1C(=Cc2ccc(-c3ccc(C(F)(F)F)cc3)o2)SC(=S)N1CCN1CCOCC1` [BW-PS-109], the EC50 with SARS-CoV-2 (setting [11]) was 190 nM. The IC50 in the data set with HeLa cells [1] (setting [7]) is 0.63 ± 0.07 µM; in the data set with HeLa cells [1] (setting [8]), more than 100 µM; in the data set with MCF-7 cells (setting [9]), 0.53 ± 0.09 µM; with MCF-7 cells (setting [10]) it was more than 100 µM. In addition, the “ϕΔ MeOH)” value in the data set “Quantum yield ϕΔ in MeOH” stood at 0.115.
